Laboratory results published in US20060166869A1, “Novel use of lipopeptide preparations” (priority 2002, published 2006).
Where two headings read alike, the source gives them in different places.

Key:
[1] = target: T1, Bordetella pertussis tilted peptide (Bordetella pertussis, UniProt P12255); type: biochemical; conditions: charged LUV, Tris NaCl buffer pH 7.4, Bordetella pertussis tilted peptide 2.42 μM (FIG. 8)
T1 construct: purchased EPYTOP (Nimes, France)
From the text: A number of different systems have been developed to assay peptide membrane fusion activity. Large unilamellar vesicles (LUV) are appropriate model for biological membrane fusion. Their curvature and their stability mimic suitably the cell membrane. Several different techniques for detecting and quantifying vesicle fusion are in common use. These include fluorescence assays that monitor fusion-induced lipid mixing between the two lipid bilayers of the membranes by observing the increase of fluorescence of a probe included in a part of vesicles in mixture. The dilution of the probe by fusion of the two bilayers from the two categories of vesicles causes a decrease of the self-quenching phenomenon leading to an increase of the fluorescence intensity.
Two sets of LUV are prepared: LUV with fluorescent probe (labelled LUV) and free probe LUV (unlabelled LUV). The probe used is the octadecyl rhodamine chloride (R18) (Molecular probes, Eugene, Oreg.).
The first step is the preparation of large multilamellar vesicles. For this, a mixing of different lipids is operated in a round bottomed Büchi flask. […]
Vesicles fusion is determined by measuring the fluorescence intensity change resulting from the fluorescence of the R18 probe. Fluorescence is monitored using fluorimeter LS-50B Perkin-Elmer (Norwalk, Conn. USA). […]

SIV tilted peptide = target: T2, SIV tilted peptide (Simian immunodeficiency virus, UniProt P05885); type: biochemical; conditions: for concentration at which inhibition is complete: Tris NaCl buffer pH 7.4, SIV tilted peptide 0.966 μM (FIG. 6); for inhibition of LUV fusion: Tris NaCl buffer pH 7.4, SIV tilted peptide 0.966 μM; for concentration at which complete (or nearly complete) inhibition of fusion is reached: Tris NaCl buffer pH 8.0, SIV tilted peptide 0.966 μM (FIG. 2)
T2 construct: SIV; 12; 528-539; GVFVLGFLGFLA; purchased SYNT:EM (Nimes, France)

[2] = uncharged LUV, Tris buffer without NaCl pH 8.0, SIV tilted peptide 0.966 μM (FIG. 5)

Substance | concentration at which the fusogenic effect is inhibited completely [1] [µM] | concentration at which inhibition is complete (SIV tilted peptide; charged LUV) [µM] | concentration at which complete (or nearly complete) inhibition of fusion is reached (SIV tilted peptide; charged LUV) [µM] | other results
cyclic fengycin A with a β-hydroxyled fatty acid chain containing 16 carbon atoms [FAC16] | ~1.61 | ~2.4 | ~1 | inhibition of LUV fusion (SIV tilted peptide; charged LUV, agent at 0.8 μM (FIG. 6)): 90%
cyclic surfactin with a linear β-hydroxyled fatty acid chain containing 14 carbon atoms [SC14] |  |  | ~2.4 | 
cyclic surfactin with an iso-branched β-hydroxyled fatty acid chain containing 13 carbon atoms [SC13] |  |  | > 4.8 | 
cyclic surfactin with an iso-branched β-hydroxyled fatty acid chain containing 15 carbon atoms [SC15] | ~4.8 | ~2.4 | ~2.4 | concentration at which fusion is completely inhibited (SIV tilted peptide; uncharged LUV, Tris NaCl buffer pH 8.0, SIV tilted peptide 0.966 μM (FIG. 4)): ~3.2 µM; antifusogenic activity in absence of NaCl compared with Tris NaCl buffer (SIV tilted peptide; [2]): slightly improved; concentration at which complete inhibition is reached (SIV tilted peptide; [2]): ~2 µM
linear surfactin, with an linear β-hydroxylated fatty acid chain containing 14 carbon atoms and with a linear peptide part [LSC14] |  |  |  | inhibition of LUV fusion (SIV tilted peptide; charged LUV, agent at concentration near 2 μM (FIG. 6)): 60%
lysophosphatidylcholine [reference compound] |  |  |  | effect on the fusion percentage (SIV tilted peptide; charged LUV, Tris NaCl buffer pH 8.0, agent at concentrations below 1 μM (FIG. 2)): no effect at all; antifusogenic activity (SIV tilted peptide; charged LUV, Tris NaCl buffer pH 8.0, agent at concentrations between 1 and 2 μM (FIG. 2)): < 50%
